Patent US11000033B2, “Ketone or oxime compound, and herbicide” (NISSAN CHEMICAL CORPORATION, priority 2014, dated 2021)

Legend:
Format in all cases: in vivo
[1] = tested on: Echinochloa crus-galli var. crus-galli; assay: Test Example 3: herbicidal effect by foliage application, Wagner pot (symbol H); conditions: application herbicide amount 320 g/ha; for H (Echinochloa crus-galli var. crus-galli) herbicidal effect grade: Table 24
In short: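 Scoring took place 3 weeks after application, using fixed criteria. Plants had been raised from seed for 14 days at 25 to 30 °C in submerged alluvial soil before a diluted emulsion of the test compound was sprayed uniformly on the leaves.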

Digitaria ciliaris = assay: Test Example 4: herbicidal effect by soil treatment (symbol F); conditions: for F (Digitaria ciliaris) herbicidal effect grade / Herbicidal effect grade, F: Digitaria ciliaris: application herbicide amount 320 g/ha; for F: Digitaria ciliaris, herbicidal effect grade: 320 g/ha
In short: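 Seeds were sown in sterilized diluvial soil, covered with about 1.5 cm of soil, and the soil surface was sprayed with a water-diluted emulsion of the compound at a predetermined rate. Plants grew in a greenhouse at 25° C. to 30° C.; effects were scored visually 3 weeks after application.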

corn = assay: Test Example 5: effect on crop by foliage application, plastic box (symbol c); conditions: 320 g/ha, 3 weeks after application
In short: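 Greenhouse culture at 25° C. to 30° C. followed spot-like sowing into sterilized diluvial soil, with seed covered by roughly 1.5 cm of soil.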

Apera spica-venti = assay: Test Example 5: herbicidal effect by foliage application, plastic box (symbol L); conditions: 320 g/ha, 3 weeks after application
In short: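 Sowing in sterilized diluvial soil, 14 days' greenhouse growth at 25° C. to 30° C., then uniform small-sprayer foliar application of aqueous emulsion dilution; plants scored three weeks afterwards.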

SMILES | herbicidal effect on H (Echinochloa crus-galli var. crus-galli), grade 0-5 [1] | F (Digitaria ciliaris) herbicidal effect grade (Digitaria ciliaris) | c: corn, effect on crop grade (corn) | L: Apera spica-venti, herbicidal effect grade (Apera spica-venti) | F: Digitaria ciliaris, herbicidal effect grade (Digitaria ciliaris) | c: corn, effect on crop (criteria 0-5) (corn) | L: Apera spica-venti, herbicidal effect (criteria 0-5) (Apera spica-venti) | H (Echinochloa crus-galli var. crus-galli) herbicidal effect grade [1] | Herbicidal effect grade, F: Digitaria ciliaris (Digitaria ciliaris)
COCCON=C(C)CC1CC(O)=C(c2c(C)cc(C)cc2C)C1=O (centres unmarked) [1-041] | 5 (Herbicidal ratio of 90% or more (almost completely withered)) | 5 (Herbicidal ratio of 90% or more (almost completely withered)) | 5 (Herbicidal ratio of 90% or more (almost completely withered)) | 5 (Herbicidal ratio of 90% or more (almost completely withered)) | – | – | – | – | –
CON=C(C)CC1CC(OC(=O)C2(C)CC2(Cl)Cl)=C(c2c(C)cc(C)cc2C)C1=O (centres unmarked) [1-036] | 5 (Herbicidal ratio of 90% or more (almost completely withered)) | 5 (Herbicidal ratio of 90% or more (almost completely withered)) | 1 (Herbicidal ratio of 5% or higher and lower than 20%) | 5 (Herbicidal ratio of 90% or more (almost completely withered)) | – | – | – | – | –
CON=C(C)CC1CC(OC(=O)COc2ccc(OC)cc2)=C(c2c(C)cc(C)cc2C)C1=O (centres unmarked) [1-069] | 5 (Herbicidal ratio of 90% or more (almost completely withered)) | 5 (Herbicidal ratio of 90% or more (almost completely withered)) | 3 (Herbicidal ratio of 40% or higher and lower than 70%) | 5 (Herbicidal ratio of 90% or more (almost completely withered)) | – | – | – | – | –
CC(CC1CC(O)=C(c2c(C)cc(C)cc2C)C1=O)=NOCC=CCl (centres unmarked) [1-056] | 5 (Herbicidal ratio of 90% or more (almost completely withered)) | 5 (Herbicidal ratio of 90% or more (almost completely withered)) | 4 (Herbicidal ratio of 70% or higher and lower than 90%) | 5 (Herbicidal ratio of 90% or more (almost completely withered)) | – | – | – | – | –
CON=C(C)CC1CC(OC(=O)COCC(F)(F)F)=C(c2c(C)cc(C)cc2C)C1=O (centres unmarked) [1-092] | 5 (Herbicidal ratio of 90% or more (almost completely withered)) | – | – | – | 5 (Herbicidal ratio of 90% or more (almost completely withered)) | 5 (Herbicidal ratio of 90% or more (almost completely withered)) | 5 (Herbicidal ratio of 90% or more (almost completely withered)) | – | –
CON=C(CC1CC(O)=C(c2c(C)cc(Br)cc2C)C1=O)C(C)C (centres unmarked) [9-001] | – | – | 4 (Herbicidal ratio of 70% or higher and lower than 90%) | 3 (Herbicidal ratio of 40% or higher and lower than 70%) | – | – | – | 5 (Herbicidal ratio of 90% or more (almost completely withered)) | 4 (Herbicidal ratio of 70% or higher and lower than 90%)
CSCCON=C(C)CC1CC(O)=C(c2c(C)cc(C)cc2C)C1=O (centres unmarked) [1-029] | 5 (Herbicidal ratio of 90% or more (almost completely withered)) | 5 (Herbicidal ratio of 90% or more (almost completely withered)) | 3 (Herbicidal ratio of 40% or higher and lower than 70%) | 5 (Herbicidal ratio of 90% or more (almost completely withered)) | – | – | – | – | –
CON=C(C)CC1CC(OC(=O)C(C)(C)F)=C(c2c(C)cc(C)cc2C)C1=O (centres unmarked) [1-039] | 5 (Herbicidal ratio of 90% or more (almost completely withered)) | 5 (Herbicidal ratio of 90% or more (almost completely withered)) | 4 (Herbicidal ratio of 70% or higher and lower than 90%) | 5 (Herbicidal ratio of 90% or more (almost completely withered)) | – | – | – | – | –
CON=C(C)CC1CC(OC(=O)COc2ccc(C(C)=O)cc2)=C(c2c(C)cc(C)cc2C)C1=O (centres unmarked) [1-080] | 5 (Herbicidal ratio of 90% or more (almost completely withered)) | – | – | – | 5 (Herbicidal ratio of 90% or more (almost completely withered)) | 5 (Herbicidal ratio of 90% or more (almost completely withered)) | 5 (Herbicidal ratio of 90% or more (almost completely withered)) | – | –
CON=C(CC1CC(O)=C(c2c(C)cc(C#C[Si](C)(C)C)cc2C)C1=O)C(C)C (centres unmarked) [9-005] | – | – | 3 (Herbicidal ratio of 40% or higher and lower than 70%) | 5 (Herbicidal ratio of 90% or more (almost completely withered)) | – | – | – | 5 (Herbicidal ratio of 90% or more (almost completely withered)) | 1 (Herbicidal ratio of 5% or higher and lower than 20%)
CON=CC(C)(C)C1CC(O)=C(c2c(C)cc(C)cc2C)C1=O (centres unmarked) [1-030] | 5 (Herbicidal ratio of 90% or more (almost completely withered)) | 3 (Herbicidal ratio of 40% or higher and lower than 70%) | 1 (Herbicidal ratio of 5% or higher and lower than 20%) | 4 (Herbicidal ratio of 70% or higher and lower than 90%) | – | – | – | – | –
CON=C(C)CC1CC(OC(=O)COc2ccc(I)cc2)=C(c2c(C)cc(C)cc2C)C1=O (centres unmarked) [1-082] | 5 (Herbicidal ratio of 90% or more (almost completely withered)) | – | – | – | 5 (Herbicidal ratio of 90% or more (almost completely withered)) | 5 (Herbicidal ratio of 90% or more (almost completely withered)) | 5 (Herbicidal ratio of 90% or more (almost completely withered)) | – | –
CON=C(C)CC1CC(OC(=O)COc2ccc(Cl)cc2)=C(c2c(C)cc(C)cc2C)C1=O (centres unmarked) [1-044] | 5 (Herbicidal ratio of 90% or more (almost completely withered)) | 5 (Herbicidal ratio of 90% or more (almost completely withered)) | 4 (Herbicidal ratio of 70% or higher and lower than 90%) | 5 (Herbicidal ratio of 90% or more (almost completely withered)) | – | – | – | – | –
CON=C(C)C(C)C1CC(O)=C(c2c(C)cc(C)cc2C)C1=O (centres unmarked) [1-032] | 5 (Herbicidal ratio of 90% or more (almost completely withered)) | 5 (Herbicidal ratio of 90% or more (almost completely withered)) | 5 (Herbicidal ratio of 90% or more (almost completely withered)) | 5 (Herbicidal ratio of 90% or more (almost completely withered)) | – | – | – | – | –
CON=C(C)CC1CC(OC(=O)COc2ccc(F)cc2)=C(c2c(C)cc(C)cc2C)C1=O (centres unmarked) [1-073] | 5 (Herbicidal ratio of 90% or more (almost completely withered)) | 5 (Herbicidal ratio of 90% or more (almost completely withered)) | – | – | – | 4 (Herbicidal ratio of 70% or higher and lower than 90%) | 5 (Herbicidal ratio of 90% or more (almost completely withered)) | – | –
CON=C(C)CC1CC(OC(=O)C(C)(C)Oc2cccc(Cl)c2)=C(c2c(C)cc(C)cc2C)C1=O (centres unmarked) [1-065] | 5 (Herbicidal ratio of 90% or more (almost completely withered)) | 5 (Herbicidal ratio of 90% or more (almost completely withered)) | 5 (Herbicidal ratio of 90% or more (almost completely withered)) | 5 (Herbicidal ratio of 90% or more (almost completely withered)) | – | – | – | – | –
CON=C(CC1CC(OC(=O)COc2ccccc2)=C(c2c(C)cc(C)cc2C)C1=O)C1CC1 (centres unmarked) [1-063] | 5 (Herbicidal ratio of 90% or more (almost completely withered)) | 5 (Herbicidal ratio of 90% or more (almost completely withered)) | 3 (Herbicidal ratio of 40% or higher and lower than 70%) | 5 (Herbicidal ratio of 90% or more (almost completely withered)) | – | – | – | – | –
CON=C(C)CC1CC(OC(=O)C(C)(C)Oc2ccccc2Cl)=C(c2c(C)cc(C)cc2C)C1=O (centres unmarked) [1-064] | 5 (Herbicidal ratio of 90% or more (almost completely withered)) | 5 (Herbicidal ratio of 90% or more (almost completely withered)) | 5 (Herbicidal ratio of 90% or more (almost completely withered)) | 5 (Herbicidal ratio of 90% or more (almost completely withered)) | – | – | – | – | –
CON=C(CC1CC(O)=C(c2c(C)cc(C)cc2C)C1=O)c1ccccn1 (centres unmarked) [1-045] | 5 (Herbicidal ratio of 90% or more (almost completely withered)) | 0 (Herbicidal ratio of 5% or lower (almost no effect)) | 3 (Herbicidal ratio of 40% or higher and lower than 70%) | 5 (Herbicidal ratio of 90% or more (almost completely withered)) | – | – | – | – | –
CON=C(CC1CC(O)=C(c2c(C)cc(C)cc2C)C1=O)C1CCCC1 (centres unmarked) [1-078] | 5 (Herbicidal ratio of 90% or more (almost completely withered)) | – | – | – | 5 (Herbicidal ratio of 90% or more (almost completely withered)) | 3 (Herbicidal ratio of 40% or higher and lower than 70%) | 3 (Herbicidal ratio of 40% or higher and lower than 70%) | – | –
